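Grown in 96-well plates, cells were treated for 48 hours with each compound at five concentrations. Insufficient inhibition: endpoint recorded as highest concentration tested. Abbreviation: GI50, concentration required for 50% inhibition of growth.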 The source made the active and inactive calls. Cut-off read from the data, not from the text of the source: active = GI50 up to about 1.1 µM and inactive = higher.
Legend:
Experiment in all cases: growth of human tumour cells (NCI), 48 h
[1] = test system: SF-295
[2] = test system: 786-0
[3] = test system: CAKI-1
[4] = test system: BT-549
[5] = test system: MDA-N
[6] = test system: COLO 205
[7] = test system: U-251
[8] = test system: OVCAR-8
[9] = test system: SK-MEL-2
[10] = test system: UACC-62
[11] = test system: SN12C
[12] = test system: HOP-62
[13] = test system: Malme-3M
[14] = test system: NCI/ADR-RES
[15] = test system: HCT-15
[16] = test system: SNB-19
[17] = test system: IGROV-1
[18] = test system: K562
[19] = test system: SW-620

SMILES | GI50 [1] | GI50 [2] | GI50 [3] | GI50 [4] | GI50 [5] | GI50 [6] | GI50 [7] | GI50 [8] | GI50 [9] | GI50 [10] | GI50 [11] | GI50 [12] | GI50 [13] | GI50 [14] | GI50 [15] | GI50 [16] | GI50 [17] | GI50 [18] | GI50 [19]
O=C1CC(Br)c2c(Cl)sc(Cl)c21 (configuration not stated) | 16.4 µM (inactive) | 3.04 µM (inactive) | 3.1 µM (inactive) | 20.8 µM (inactive) | 3.21 µM (inactive) | 12.1 µM (inactive) | 3.37 µM (inactive) | 3.1 µM (inactive) | 15.8 µM (inactive) | 11.8 µM (inactive) | 14.1 µM (inactive) | 6.01 µM (inactive) | 12.1 µM (inactive) | 24 µM (inactive) | 8.07 µM | 19.3 µM (inactive) | 11.4 µM (inactive) | 2.17 µM (inactive) | 1.84 µM (inactive)
CC(=O)Oc1ccc2c(c1OC(C)=O)CCC1C2=CC[C@]2(C)C(=O)CCC12 (some centres not stated) | 12.9 µM (inactive) | 2.47 µM (inactive) | 6.07 µM (inactive) | 15.6 µM (inactive) | 14.2 µM (inactive) | 14.5 µM (inactive) | – | 14.3 µM (inactive) | 15.1 µM (inactive) | 12.3 µM (inactive) | 14.1 µM (inactive) | 19.7 µM (inactive) | 13.8 µM (inactive) | 27.6 µM (inactive) | 10.6 µM | 12.5 µM (inactive) | 4.73 µM (inactive) | 14 µM (inactive) | 3.18 µM (inactive)
CNC1C(=O)C(C)C(O)(C(CC(C)C(O)/C=C/C=C/CNC(=O)C(C)(C)C(O)\C(C)=C/C=C\C=C\Cc2cnc(C)o2)OC)C12C(=O)OC2C.CNC1C(=O)C(C)C(O)(C(CC(C)C(O)/C=C/C=C/CNC(=O)C(C)(C)C(O)\C(C)=C/C=C\C=C\Cc2cnc(C)o2)OC)C12C(=O)OC2COC (configuration not stated) | 0.528 µM (active) | 18.5 µM (inactive) | 31.8 µM (inactive) | 25.1 µM (inactive) | 15 µM (inactive) | 0.778 µM (active) | 1.15 µM (inactive) | 0.459 µM (active) | 5.94 µM (inactive) | 13.3 µM (inactive) | 10.9 µM (inactive) | 8.43 µM (inactive) | 9.04 µM (inactive) | 15.9 µM (inactive) | 21 µM | 19.9 µM (inactive) | 0.931 µM (active) | 0.181 µM (active) | 8.65 µM (inactive)
CCN(CC)CCOC(c1cc(OC)ccc1OC)c1ccc2n1-c1ccccc1OC2 (configuration not stated) | 10.4 µM (inactive) | 15.6 µM (inactive) | 14.9 µM (inactive) | 12.7 µM (inactive) | 13.6 µM (inactive) | 5.42 µM (inactive) | 14.9 µM (inactive) | 13.2 µM (inactive) | 13.1 µM (inactive) | 2.39 µM (inactive) | 2.48 µM (inactive) | 16.4 µM (inactive) | 18.5 µM (inactive) | 2.57 µM (inactive) | 11.5 µM | 15.7 µM (inactive) | 7 µM (inactive) | 7.23 µM (inactive) | 8.85 µM (inactive)
NC(Cc1ccc2nc3c4ccccc4c(=O)cc-3oc2c1)C(=O)O (configuration not stated) | > 100 µM (inactive) | > 100 µM (inactive) | > 100 µM (inactive) | > 100 µM (inactive) | 16 µM (inactive) | 20.9 µM (inactive) | > 100 µM (inactive) | – | 53.3 µM (inactive) | 32.7 µM (inactive) | > 100 µM (inactive) | > 100 µM (inactive) | 14.8 µM (inactive) | > 100 µM (inactive) | > 100 µM | > 100 µM (inactive) | > 100 µM (inactive) | > 100 µM (inactive) | > 100 µM (inactive)
COc1ccccc1/C(=N\OCCC(=O)O)c1cccs1 | > 100 µM (inactive) | > 100 µM (inactive) | > 100 µM (inactive) | > 100 µM (inactive) | > 100 µM (inactive) | > 100 µM (inactive) | > 100 µM (inactive) | > 100 µM (inactive) | > 100 µM (inactive) | > 100 µM (inactive) | > 100 µM (inactive) | > 100 µM (inactive) | > 100 µM (inactive) | > 100 µM (inactive) | > 100 µM | > 100 µM (inactive) | – | > 100 µM (inactive) | > 100 µM (inactive)
COC(=O)C(=O)C(C(=O)C(=O)Nc1ccccc1C(=O)OC)c1nc2ccc(C(=O)c3ccccc3)cc2nc1O (configuration not stated) | 47.2 µM (inactive) | > 100 µM (inactive) | 30.5 µM (inactive) | > 100 µM (inactive) | 28.4 µM (inactive) | – | > 100 µM (inactive) | 39.4 µM (inactive) | > 100 µM (inactive) | > 100 µM (inactive) | 64.7 µM (inactive) | 55 µM (inactive) | 76.9 µM (inactive) | 18.8 µM (inactive) | 46.8 µM | – | 62.8 µM (inactive) | 36.1 µM (inactive) | 50 µM (inactive)
CCCCCCN(C(=O)Oc1ccccc1)C(C#N)c1ccccc1 (configuration not stated) | > 100 µM (inactive) | > 100 µM (inactive) | > 100 µM (inactive) | > 100 µM (inactive) | > 100 µM (inactive) | > 100 µM (inactive) | > 100 µM (inactive) | > 100 µM (inactive) | > 100 µM (inactive) | > 100 µM (inactive) | > 100 µM (inactive) | > 100 µM (inactive) | > 100 µM (inactive) | > 100 µM (inactive) | > 100 µM | > 100 µM (inactive) | > 100 µM (inactive) | > 100 µM (inactive) | > 100 µM (inactive)
CN(CCCNC(=O)c1cn(C)c2c1ccc1cc(Cl)c(Cl)cc12)CCCNC(=O)c1cn(C)c2c1ccc1cc(Cl)c(Cl)cc12 | 17.1 µM (inactive) | 6.27 µM (inactive) | 11.6 µM (inactive) | 15.6 µM (inactive) | 15.9 µM (inactive) | 3.18 µM (inactive) | 3.03 µM (inactive) | 14.8 µM (inactive) | 16.7 µM (inactive) | 16.1 µM (inactive) | 13.6 µM (inactive) | 14.3 µM (inactive) | 17.1 µM (inactive) | 15.2 µM (inactive) | 11.9 µM | 7 µM (inactive) | 7.62 µM (inactive) | 5.41 µM (inactive) | 4.19 µM (inactive)
CCn1cc(C(=O)O)c(=O)c2cc3c(cc21)S(=O)(=O)CC3 | > 100 µM (inactive) | > 100 µM (inactive) | > 100 µM (inactive) | > 100 µM (inactive) | > 100 µM (inactive) | > 100 µM (inactive) | 24.2 µM (inactive) | > 100 µM (inactive) | > 100 µM (inactive) | > 100 µM (inactive) | > 100 µM (inactive) | > 100 µM (inactive) | > 100 µM (inactive) | > 100 µM (inactive) | > 100 µM | > 100 µM (inactive) | > 100 µM (inactive) | > 100 µM (inactive) | > 100 µM (inactive)
ON[C@@H]1C=C[C@H](n2cnc3c(NC4CC4)ncnc32)C1 | > 100 µM (inactive) | > 100 µM (inactive) | > 100 µM (inactive) | > 100 µM (inactive) | > 100 µM (inactive) | > 100 µM (inactive) | > 100 µM (inactive) | > 100 µM (inactive) | > 100 µM (inactive) | > 100 µM (inactive) | > 100 µM (inactive) | > 100 µM (inactive) | > 100 µM (inactive) | > 100 µM (inactive) | > 100 µM | > 100 µM (inactive) | 94.4 µM (inactive) | > 100 µM (inactive) | > 100 µM (inactive)
CCOC(=O)C(O)Cc1cnc2ccccc2n1 (configuration not stated) | – | > 100 µM (inactive) | > 100 µM (inactive) | > 100 µM (inactive) | > 100 µM (inactive) | > 100 µM (inactive) | > 100 µM (inactive) | > 100 µM (inactive) | > 100 µM (inactive) | > 100 µM (inactive) | > 100 µM (inactive) | > 100 µM (inactive) | > 100 µM (inactive) | > 100 µM (inactive) | > 100 µM | > 100 µM (inactive) | 94.2 µM (inactive) | > 100 µM (inactive) | > 100 µM (inactive)
Cc1ccc(NC(=S)C#N)c(C)c1 | > 100 µM (inactive) | > 100 µM (inactive) | > 100 µM (inactive) | 54.1 µM (inactive) | > 82.2 µM (inactive) | > 84.1 µM (inactive) | > 86.3 µM (inactive) | > 100 µM (inactive) | > 100 µM (inactive) | 97.3 µM (inactive) | > 100 µM (inactive) | > 100 µM (inactive) | 44.2 µM (inactive) | 75.7 µM (inactive) | > 92.7 µM | > 100 µM (inactive) | > 63 µM (inactive) | 38.4 µM (inactive) | > 73.5 µM (inactive)
CC(C)(C)OC/C=C(\Br)CO | > 100 µM (inactive) | > 100 µM (inactive) | > 100 µM (inactive) | > 100 µM (inactive) | > 100 µM (inactive) | > 100 µM (inactive) | > 100 µM (inactive) | > 100 µM (inactive) | > 100 µM (inactive) | > 100 µM (inactive) | > 100 µM (inactive) | > 100 µM (inactive) | > 100 µM (inactive) | > 100 µM (inactive) | > 100 µM | > 100 µM (inactive) | – | > 100 µM (inactive) | > 100 µM (inactive)
CCOC(=O)c1cc(NC(=O)N(CCC#N)CCN(C(=O)N[C@@H](Cc2ccccc2)C(=O)N[C@@H](CC(C)C)C(=O)NC)c2ccccc2)ccc1OC | 34.6 µM (inactive) | 45.3 µM (inactive) | > 100 µM (inactive) | 30.9 µM (inactive) | 57.1 µM (inactive) | > 100 µM (inactive) | > 10 µM (inactive) | 84.9 µM (inactive) | 38.2 µM (inactive) | 4.76 µM (inactive) | 33.7 µM (inactive) | 41.8 µM (inactive) | 29.4 µM (inactive) | > 100 µM (inactive) | 57.4 µM | 79.4 µM (inactive) | 41.8 µM (inactive) | – | > 10 µM (inactive)
